Source: patent US20250313563A1, “GLYCOGEN SYNTHASE KINASE 3 INHIBITORS AND USES THEREOF” (The Broad Institute, Inc., priority 2022, published 2025)
Where two headings read alike, the source gives them in different places.

How the values were obtained:
[1] = molecular target: GSK3α (GST-full length GSK3α) (Homo sapiens (Human), UniProt P49840); experiment: GSK3α TR-FRET kinase assay; assay type: biochemical
Description: (§1) TR-FRET Assay: The assay was performed in a white, 384 well, low volume, flat bottom plate (Grenier). After a 30 minute preincubation in assay buffer with the indicated concentration of compound, the kinase activity was initiated by the addition of the substrates. 1 nM GSK3α (GST-full length GSK3α [SignalChem G08-10G]) or 1 nM GSK3b (GST-full length GSK3b: [SignalChem G08-9G]) were then incubated at ambient temperature for 100 minutes in 10 μL of 50 mM Tris, pH 7.5, 20 mM MgCl2, 0.05 mM DTT, 100 μg/mL BSA and 1% DMSO, with 200 nM biotinylated peptide substrate (biotinylated and S645 phosphorylated glycogen synthase 631-650) and either 4 μM ATP (GSK3α, Table 16) or 2 μM ATP (GSK3b, Table 16) or 1 mM ATP (Table 17). The kinase activity was quenched with 2 μL of 250 mM EDTA. A 10 μL volume of 40 nM Strepavidin-d2, 2 nM Tb^2+-pSer641 antibody in TR-FRET Detection Buffer (Invitrogen) was then added. After 60 min at room temperature the plate was read on Envision plate reader using Ex: 340 nm, Em: 615 nm and […]. The normalized 665/615 Signal ratio versus log compound concentration was analyzed by XLFIT to yield IC50 values.

[2] = molecular target: GSK3b (GST-full length GSK3b) (Homo sapiens (Human), UniProt P49841); experiment: GSK3b TR-FRET kinase assay; assay type: biochemical
Chain of GSK3b (GST-full length GSK3b) (P49841 whole entry): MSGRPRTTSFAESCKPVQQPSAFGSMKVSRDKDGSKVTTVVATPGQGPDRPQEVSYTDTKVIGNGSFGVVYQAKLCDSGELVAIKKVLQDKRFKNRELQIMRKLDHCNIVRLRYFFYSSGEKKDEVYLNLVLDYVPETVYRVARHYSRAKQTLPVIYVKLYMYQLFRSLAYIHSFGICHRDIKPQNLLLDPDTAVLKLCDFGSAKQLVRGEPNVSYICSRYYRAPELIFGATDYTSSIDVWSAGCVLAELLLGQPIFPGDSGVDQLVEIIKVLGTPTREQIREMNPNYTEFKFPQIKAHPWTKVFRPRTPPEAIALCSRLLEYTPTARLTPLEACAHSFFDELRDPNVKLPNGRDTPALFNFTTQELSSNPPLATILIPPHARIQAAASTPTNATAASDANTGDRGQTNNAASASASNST
Description: as §1

[3] = 1 nM GSK3α, 4 μM ATP, 30 minute preincubation, geometric mean, read-out: GSK3-A TR-FRET BIOCHEMICAL (TR-FRET), GMean, IC50
[4] = 1 nM GSK3b, 2 μM ATP, 30 minute preincubation, geometric mean, read-out: GSK3-B TR-FRET BIOCHEMICAL (TR-FRET), GMean, IC50
[5] = read-out: GSK3-A (TR-FRET 1 mM ATP), GMean, IC50, 1 mM ATP, geometric mean
[6] = read-out: GSK3-B (TR-FRET 1 mM ATP), GMean, IC50, 1 mM ATP, geometric mean
[7] = 1 nM GSK3α, 4 μM ATP, 30 minute preincubation, Table 16, read-out: GSK3-A TR-FRET BIOCHEMICAL (TR-FRET)
[8] = 1 nM GSK3b, 2 μM ATP, 30 minute preincubation, Table 16, read-out: GSK3-B TR-FRET BIOCHEMICAL (TR-FRET)

Chain of GSK3α (GST-full length GSK3α) (P49840 whole entry): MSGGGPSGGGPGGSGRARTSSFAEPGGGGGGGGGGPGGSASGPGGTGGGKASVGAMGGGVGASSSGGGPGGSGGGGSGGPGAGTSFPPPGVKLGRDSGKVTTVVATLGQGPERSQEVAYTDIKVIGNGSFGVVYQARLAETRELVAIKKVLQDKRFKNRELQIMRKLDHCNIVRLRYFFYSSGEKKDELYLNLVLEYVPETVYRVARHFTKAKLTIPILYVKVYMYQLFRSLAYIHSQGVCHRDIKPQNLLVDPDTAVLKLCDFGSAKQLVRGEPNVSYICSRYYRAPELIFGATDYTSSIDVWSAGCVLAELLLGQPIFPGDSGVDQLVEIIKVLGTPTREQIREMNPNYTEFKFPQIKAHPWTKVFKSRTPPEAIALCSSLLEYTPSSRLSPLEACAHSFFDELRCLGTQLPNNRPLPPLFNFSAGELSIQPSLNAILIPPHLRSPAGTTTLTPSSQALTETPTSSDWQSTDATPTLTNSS

IC50 [1, 3] [nM] | IC50 [2, 4] [nM] | SMILES | also measured
100 to 1000 | 1000 to 5000 | CC[C@@]1(c2ccc(C)cc2)C2=C(CC(C)(C)CC2=O)Nc2n[nH]cc21 [Compound 789457] | 
> 5000 | > 5000 | CC[C@]1(c2ccc(C)cc2)C2=C(CC(C)(C)CC2=O)Nc2n[nH]cc21 [Compound 789458] | 
≤ 100 | ≤ 100 | CCC1(c2ccccc2)C2=C(CC(C)(C)CC2=O)Nc2n[nH]c(Br)c21 (centres unmarked) [Compound 789459] | 
100 to 1000 | 100 to 1000 | CC1(c2ccccc2)C2=C(CC3(CCCC3)CC2=O)Nc2n[nH]cc21 (centres unmarked) [Compound 789460] | 
1000 to 5000 | > 5000 | CC1(C)CC(=O)C2=C(C1)Nc1n[nH]cc1C2(c1ccccc1)c1ccccc1 [Compound 789461] | 
1000 to 5000 | > 5000 | CCC1(c2ccccc2)C2=C(CCCC2=O)Nc2n[nH]cc21 (centres unmarked) [Compound 789497] | 
100 to 1000 | 100 to 1000 | CC1(C)CC(=O)C2=C(C1)Nc1n[nH]cc1C2(C)c1cccc(-c2ccccc2)c1 (centres unmarked) [Compound 789513] | 
100 to 1000 | 100 to 1000 | CCC1(c2cccc(-c3ccccc3)c2)C2=C(CC(C)(C)CC2=O)Nc2n[nH]cc21 (centres unmarked) [Compound 789514] | 
 | 100 to 1000 | CCC1(c2cccc(C)c2)C2=C(CC(C)(C)CC2=O)Nc2n[nH]cc21 (centres unmarked) [Compound 789560] | IC50 [1, 5]: 1000 to 5000 nM; IC50 [2, 6]: > 5000 nM
1000 to 5000 | > 5000 | CC[C@]1(c2cccc(C)c2)C2=C(CC(C)(C)CC2=O)Nc2n[nH]cc21 [Compound 789561] | 
≤ 100 | 100 to 1000 | CC[C@@]1(c2ccccc2)C2=C(CC3(CCCC3)CC2=O)Nc2n[nH]cc21 [Compound 789562] | 
> 5000 | > 5000 | CC[C@]1(c2ccccc2)C2=C(CC3(CCCC3)CC2=O)Nc2n[nH]cc21 [Compound 789563] | 
≤ 100 | ≤ 100 | CCC1(c2cccc(Cl)c2)C2=C(CC(C)(C)CC2=O)Nc2n[nH]c(Br)c21 (centres unmarked) [Compound 789564] | 
> 5000 | > 5000 | CCC1(c2cccc(Cl)c2)C2=C(CC(C)(C)CC2=O)Nc2n[nH]c(C)c21 (centres unmarked) [Compound 790611] | 
≤ 100 | 100 to 1000 | CC[C@@]1(c2ccccc2)C2=C(CC3(CC3)CC2=O)Nc2n[nH]cc21 [Compound 790615] | 
> 5000 | > 5000 | CC[C@]1(c2ccccc2)C2=C(CC3(CC3)CC2=O)Nc2n[nH]cc21 [Compound 790616] | 
≤ 100 | ≤ 100 | CCC1(c2cccc(C(F)(F)F)c2)C2=C(CC3(CCCC3)CC2=O)Nc2n[nH]cc21 (centres unmarked) [Compound 790617] | 
1000 to 5000 | > 5000 | CCC1(c2ccn(C)n2)C2=C(CC(C)(C)CC2=O)Nc2n[nH]cc21 (centres unmarked) [Compound 790619] | 
> 5000 | > 5000 | CC1(C)CC(=O)C2=C(C1)Nc1n[nH]c(C(F)(F)F)c1C21CCCOc2ccccc21 (centres unmarked) [Compound 790632] | 
 |  | CC1(C)CC(=O)C2=C(C1)Nc1n[nH]cc1C21CCCC1 [Compound 790666] | IC50 [1, 7]: ≤ 100 nM; IC50 [2, 8]: ≤ 100 nM
≤ 100 | 100 to 1000 | CC1(C)CC(=O)C2=C(C1)Nc1n[nH]cc1C2(C)c1cccc(-c2ccncc2)c1 (centres unmarked) [Compound 790730] | 
≤ 100 | ≤ 100 | CCC1(c2cccc(Br)c2)C2=C(CC(C)(C)CC2=O)Nc2n[nH]cc21 (centres unmarked) [Compound 790733] | IC50 [1, 5]: 100 to 1000 nM; IC50 [2, 6]: 1000 to 5000 nM
100 to 1000 | > 5000 | CCC1(c2cccc(Br)c2)C2=C(CC(C)(C)CC2=O)Nc2n[nH]cc21 (centres unmarked) [Compound 790734] | 

IC50 [1, 3] [nM] | IC50 [2, 4] [nM] | SMILES | also measured
≤ 100 | ≤ 100 | CCC1(c2cccc(C(F)(F)F)c2)C2=C(CC(C)(C)CC2=O)Nc2n[nH]cc21 (centres unmarked) [Compound 790754] | IC50 [1, 5]: 100 to 1000 nM; IC50 [2, 6]: 1000 to 5000 nM
> 1700 | 1000 to 5000 | CC(C)(C)Cc1[nH]nc2c1C1(CCc3c(F)cccc31)C1=C(CC(C)(C)CC1=O)N2 (centres unmarked) [Compound 791256] | 
> 5000 | > 5000 | CC[C@]1(c2ccccc2)C2=C(C[C@H](c3ccccc3)CC2=O)Nc2n[nH]cc21 [Compound 791262] | 
> 5000 | > 5000 | CC[C@@]1(c2ccccc2)C2=C(C[C@H](c3ccccc3)CC2=O)Nc2n[nH]cc21 [Compound 791263] | 
100 to 1000 | > 5000 | CC[C@]1(c2ccccc2)C2=C(C[C@@H](c3ccccc3)CC2=O)Nc2n[nH]cc21 [Compound 791264] | 
1000 to 5000 | > 5000 | CC[C@@]1(c2ccccc2)C2=C(C[C@@H](c3ccccc3)CC2=O)Nc2n[nH]cc21 [Compound 791265] | 
 |  | CC[C@]1(c2ccccc2)C2=C(Nc3n[nH]cc31)[C@@H]1CC[C@@H](C1)C2=O [Compound 791266] | IC50 [1, 7]: > 5000 nM; IC50 [2, 8]: > 5000 nM
 |  | CC[C@@]1(c2ccccc2)C2=C(Nc3n[nH]cc31)[C@@H]1CC[C@@H](C1)C2=O [Compound 791268] | IC50 [1, 7]: > 5000 nM; IC50 [2, 8]: > 5000 nM
 |  | CC[C@]1(c2ccccc2)C2=C(Nc3n[nH]cc31)[C@H]1CC[C@H](C1)C2=O [Compound 791269] | IC50 [1, 7]: 100 to 1000 nM; IC50 [2, 8]: 100 to 1000 nM
 |  | CC[C@@]1(c2ccccc2)C2=C(Nc3n[nH]cc31)[C@H]1CC[C@H](C1)C2=O [Compound 791270] | IC50 [1, 7]: 100 to 1000 nM; IC50 [2, 8]: > 1700 nM
≤ 100 | 100 to 1000 | CCC1(c2cccc(-c3ccncc3)c2)C2=C(CC(C)(C)CC2=O)Nc2n[nH]cc21 (centres unmarked) [Compound 791271] | 
≤ 100 | 100 to 1000 | CCC1(c2cccc(-c3cccnc3)c2)C2=C(CC(C)(C)CC2=O)Nc2n[nH]cc21 (centres unmarked) [Compound 791272] | 
≤ 100 | 100 to 1000 | C[C@@]1(c2ccccc2)C2=C(CC3(CCCC3)CC2=O)Nc2n[nH]cc21 [Compound 792338] | 
> 1700 | > 5000 | C[C@]1(c2ccccc2)C2=C(CC3(CCCC3)CC2=O)Nc2n[nH]cc21 [Compound 792339] | 
≤ 100 | ≤ 100 | CC[C@@]1(c2ccccc2)C2=C(CC(C)(C)CC2=O)Nc2n[nH]c(Br)c21 [Compound 792340] | IC50 ([1]; GSK3-A (TR-FRET 1 mM ATP), GMean, IC50, 1 mM ATP, geometric mean): 100 to 1000 nM; IC50 ([2]; GSK3-B (TR-FRET 1 mM ATP), GMean, IC50, 1 mM ATP, geometric mean): 100 to 1000 nM
100 to 1000 | 100 to 1000 | CC[C@]1(c2ccccc2)C2=C(CC(C)(C)CC2=O)Nc2n[nH]c(Br)c21 [Compound 792341] | 
100 to 1000 | 100 to 1000 | COc1cccc(C2(C)C3=C(CC(C)(C)CC3=O)Nc3n[nH]cc32)c1 (centres unmarked) [Compound 792342] | 
1000 to 5000 | > 1670 | CCC1(c2cccc(Cl)c2)C2=C(CC(C)(C)CC2=O)Nc2n[nH]c(C(F)(F)F)c21 (centres unmarked) [Compound 801309] | 
≤ 100 | ≤ 100 | CC[C@@]1(c2cccc(C(F)(F)F)c2)C2=C(CC3(CCCC3)CC2=O)Nc2n[nH]cc21 [Compound 801311] | IC50 [1, 5]: ≤ 100 nM; IC50 [2, 6]: 100 to 1000 nM
 |  | CCC1(c2cccc(Cl)c2)C2=C(CC(C)(C)CC2=O)Nc2n[nH]c(Br)c21 (centres unmarked) [Compound 801314] | IC50 [1, 5]: ≤ 100 nM; IC50 [2, 6]: 100 to 1000 nM
≤ 100 | ≤ 100 | CCC1(c2cccc(C3CC3)c2)C2=C(CC(C)(C)CC2=O)Nc2n[nH]cc21 (centres unmarked) [Compound 801316] | 
100 to 1000 | 100 to 1000 | CCC1(c2cccc(N3CCCC3)c2)C2=C(CC(C)(C)CC2=O)Nc2n[nH]cc21 (centres unmarked) [Compound 801317] | 
≤ 100 | ≤ 100 | CCC1(c2cccc(N(C)C(C)=O)c2)C2=C(CC(C)(C)CC2=O)Nc2n[nH]cc21 (centres unmarked) [Compound 801319] | 
